Patent US20250009743A1, “METHODS OF TREATING CANCERS USING STING AGONISTS” (Dana-Farber Cancer Institute, Inc., priority 2021, published 2025)
pIC50: −log10 of the molar value.

How the values were obtained:
[1] = system: PBM-R tumor cells; assay: Measurement of IC50 value in PBM-R tumor cells (CellTiter-Glo); assay type: cell-based, mouse
Procedure: Tumor cells were seeded in 96-well plates at a density of 2000-3000/well and allowed to adhere overnight. Cells were then exposed to appropriate concentrations of therapeutic agents (or vehicle control) with continuous exposure for 72 h. Growth inhibition was measured by CellTiter-Glo® 2.0 Cell Viability Assay from Promega according to manufactory's introduction. IC50 values were calculated using non-linear regression model (logarithmic inhibitor vs. normalized response-variable slope) in Graphpad Prism 9.

[2] = system: STAT3 phosphorylation in PBM tumor cells; assay: p-STAT3 (Y705) in PBM tumor cells (flow cytometry, Western blot); assay type: cell-based, mouse; conditions: PARPi-naïve PBM cells, 24 hours; FIGS. 19D and 20B
Procedure: Analysis of p-STAT3 and γ-H2AX (p-HA2X-Ser139) was performed according to a two-step protocol for intracellular phosphorylated signaling proteins (Thermo Fisher). Briefly, cells were incubated with LIVE/DEAD Fixable Aqua Dead Cell Stain for 30 min. After washing, cells were suspended in 100 μl PBS and then fixed by adding an equal volume of IC Fixation Buffer (CAT #00-822-49, Thermo Fisher) directly to cells and incubated at room temperature for 20 min followed by fixing with ice-cold 90% methanol in PBS for 30 min. The fixed cells were blocked and stained with p-STAT3 or γ-H2AX antibodies for flow cytometry analysis as described above.
Tumor cells were harvested and lysed with ice-cold RIPA buffer supplemented with protease phosphatase inhibitor cocktail (Thermo Fisher). Protein concentration was determined using a Pierce BCA Protein Assay Kit (Thermo Fisher). About 50 μg protein extracts were loaded and separated by SDS-PAGE, and then transferred to polyvinylidene fluoride (PVDF) membranes. After blocking with 5% non-fat milk (Bio-Rad) in PBST (PBS plus 0.2% Tween 20) at room temperature for 1 hr, membranes were incubated with primary antibodies overnight at 4° C.

[3] = system: DF101 PDX; assay: DF101 ovarian PDX in NSG mice; assay type: in vivo, human
Description: (§1) For the PDX in vivo experiments, about 3×10^6 PDX tumor cells were mixed with 3×10^6 human bone marrow mononuclear cells in serum-free DMEM/F12 medium containing 50% Matrigel (CAT #70001, […] Technology) and intraperitoneally transplanted into NOD/SCID IL2Rgnull mice (NSG, The Jackson Laboratory). About three weeks after injection, PDX-bearing mice were equivalently divided into 4 groups according to the luminescent intensity and treated with vehicle control, olaparib, MSA-2 and olaparib in combination with MSA-2 using the same dosing and schedule that have been described above. Ascites was harvested for analysis after three weeks' treatment.
Tumors were chopped and digested in collagenase buffer as described previously (Ding et al., 2018 Cell Rep 25, 2972-2980.e2975). Single cell suspensions of tumor and ascites were obtained by filtering through 70 um strainers and treated with 1× eBioscience RBC lysis buffer (Thermo Fisher) before staining. Single cells suspensions were incubated with LIVE/DEAD Fixable Aqua Dead Cell Stain (Life Technologies, Cat #L34965) for 30 min and then blocked with anti-CD16/32 (Biolegend, clone 93) for 20 min on ice. Samples were then incubated with appropriate antibodies for 30 min on ice. Foxp3 staining buffer set (eBioscience, Cat #00-5523-00) was applied for intracellular markers staining. For the intracellular cytokine analysis, cells were stimulated with Leukocyte Activation Cocktail (BD Biosciences, Cat #550583) at 37° C. for 4-6 hours prior to FACS staining. […] Flow cytometry was performed on an LSRII (BD Biosciences) or Fortessa HTS (BD Biosciences) at DFCI Flow Cytometry Core, and all the data were analyzed using FlowJo software.

[4] = system: DF86 PDX; assay: DF86 ovarian PDX with human bone marrow monocytes in NSG mice; assay type: in vivo
Description: as §1
Tumors were chopped and digested in collagenase buffer as described previously (Ding et al., 2018 Cell Rep 25, 2972-2980.e2975). Single cell suspensions of tumor and ascites were obtained by filtering through 70 um strainers and treated with 1× eBioscience RBC lysis buffer (Thermo Fisher) before staining. Single cells suspensions were incubated with LIVE/DEAD Fixable Aqua Dead Cell Stain (Life Technologies, Cat #L34965) for 30 min and then blocked with anti-CD16/32 (Biolegend, clone 93) for 20 min on ice. Samples were then incubated with appropriate antibodies for 30 min on ice. Foxp3 staining buffer set (eBioscience, Cat #00-5523-00) was applied for intracellular markers staining. For the intracellular cytokine analysis, cells were stimulated with Leukocyte Activation Cocktail (BD Biosciences, Cat #550583) at 37° C. for 4-6 hours prior to FACS staining. The following antibodies were used in this study: antibodies were purchased from BioLegend unless otherwise indicated: CD45 (clone 30-F11), CD3ε (clone 145-2C11), CD4 (clone RM4-5), CD8 (clone 53-6.7), CD44 (clone IM7), CD62L (MEL-14), CD25 (PC61), IFNγ (clone XMG1.2), TNFα (clone MP6-XT22), CD11b (clone M1/70), CD11c […], F4/80 (clone BM8), Ly-6C (clone HK1.4), Ly-6G (clone 1A8), MHC-II (clone M5/114.15.2), CD80 (clone 16-10A1), CD86 (clone GL-1), MHC-I (clone KH114), FoxP3 (clone FJK-16 s; eBioscience), Phospho-IRF-3 (Ser396) (clone D601M, Cell signaling technology) and Phospho-TBK1/NAK (Ser172) (clone D52C2, Cell signaling technology). The following human antibodies were used in this study: cell surface markers includes CD45 (clone H130), CD11b (clone M1/70), CD11c (clone Bu15), CD80 (clone 2D10), CD86 (clone IT2.2), CD14 (clone 63D3), CD15 […], HLA-DR (clone L243) and HLA-A,B,C (clone W6/32); intracellular markers include CD163 (clone GHI/61), CD68 (clone Y1/82A) and CD206 (clone 15-2). Flow cytometry was performed on an LSRII (BD Biosciences) or Fortessa HTS (BD Biosciences) at DFCI Flow Cytometry Core, and all the data were analyzed using FlowJo software.

[5] = system: PE tumors; assay: Flow cytometry of immune cells in PE tumors and tumor-drainage lymph nodes; assay type: in vivo, mouse; conditions: single-agent treatment; FIG. 30B
Procedure: To obtain single-cell suspension from tumor mass, tumors were excised, minced and dissociated in collagenase buffer (DMEM supplemented with 5% FBS, 10 mM HEPES [Gibco), 100 μg/mL penicillin-streptomycin, 20 μg/mL DNase I [StemCell] and 1× collagenase/hyaluronidase [StemCell]) at 37° C. for 45 min. Tumor-draining lymph nodes were isolated from tumor-bearing mice and were mashed through 70 μm strainer using plunger of a syringe to obtain single-cell suspension.
For FACS staining, tissue cells were first stained with LIVE/DEAD Fixable Aqua Dead Cell Stain (Thermo Fisher) for 30 min on ice, followed by blocking with anti-CD16/32 (BioLegend) for 20 minutes on ice. Afterwards, cells were incubated with antibodies targeting surface biomarkers in FACS buffer for 30 minutes on ice.

SMILES | IC50 values of 11 out of 12 PBM-R tumor lines ([1]; 11 out of 12 PBM-R lines sensitive in vitro, FIG. 15C) | pIC50 ([1]; Mus musculus, PBM-R3 tumor cells, 72 h, FIG. 15C) | IC50 fold ([1]; PBM-R3 IC50 relative to 0.56 μM) [folds] | phosphorylation of STAT3 [2] | tumor response compared to DF86 PDX tumors ([3]; FIG. 26) | TAM phenotype in ascites ([3]; FIG. 26C-E) | proportion of TAMs in ascites ([3]; FIG. 26C-E) | proportion of TAMs in ascites ([4]; FIG. 25H) | M1/M2 ratio in ascites ([4]; FIG. 25I) | CD14^+ myeloid DCs (CD14^+HLA-DR^+) ([4]; FIG. 25J) | tumor burden (fold change of intensity of luciferase signal) ([4]; compared to control or olaparib treated mice, FIG. 25G) | tumor immune microenvironment of large PE tumors [5]
O=C(c1cc(Cc2n[nH]c(=O)c3ccccc23)ccc1F)N1CCN(C(=O)C2CC2)CC1 [olaparib] | comparable to PBM tumor cells | 5.38 | 7.48 | increased phosphorylation levels of STAT3 in cultured PBM cells in a dose-dependent manner |  |  |  |  |  |  |  | 
COc1cc2cc(C(=O)CCC(=O)O)sc2cc1OC [MSA-2] |  |  |  |  | less responsive | reprogramed M2-like TAMs to M1-like | greatly decreased | decreased proportion of TAMs | increased M1/M2 ratio | significantly increased | significantly decreased | did not significantly affect
